Article PMC4828713, “New potential binding determinant for hERG channel inhibitors” (Scientific Reports, 2016)

How the values were obtained:
[1] = target: Y652A-hERG (Homo sapiens, UniProt Q12809, Y652A); details: pH 7.4
Text: (§1) For hERG measurements, the oocytes were clamped at a holding potential of −100 mV and depolarized to +20 mV allowing activation and inactivation. […] Channel block was estimated from tail current inhibition.

[2] = target: wild type hERG (WT) channels (Homo sapiens, UniProt Q12809); details: pH 7.4
Text: as §1

O=C(CCCN1CCC(O)(c2ccc(Cl)cc2)CC1)c1ccc(F)cc1 [Haloperidol, haloperidol]
Y652A-hERG nH (hill coefficient) [1]: 1 ± 0.04
Y652A-hERG ∆IC50 [1]: 31.4
WT nH (hill coefficient) [2]: 1.3 ± 0.1
